Test results reported in patent US20260297060A1, “COMPOUNDS FOR THE DEGRADATION OF MUTANT BRAF” (C4 THERAPEUTICS, INC., priority 2023, published 2026).
Like-named read-outs stand apart in the source and are kept apart here.

Assay: Pharmacokinetics after 21 days dosing in the efficacy study (plasma, tumor and brain concentrations; plasma AUC at steady state), Example 14
Assay type: in vivo, female BALB/c nude mice
Settings: for Concentration in Brain / concentration at 24 h: 24 h; for Concentration in Brain: BQL: below the lower limit of quantitation; for concentration at 4 h / concentration at 24 h / concentration at 0.25 h / concentration at 0.5 h / concentration at 1 h / concentration at 2 h / concentration at 8 h / concentration at 10 h: mouse, po
Description: Agents were tested in the A375 human melanoma xenografts. Compound 26 and Compound 141 were administered to BALB/c nude mice bearing A375 tumors from PG-DO and dosed via PO twice a day (BID) or third a day (TIP) or dosed P daily (QD) from PG-D. Dabrafenib was administered to BALB/c nude mice bearing A375 tumors from PG-D1 and dosed via P daily (QD). Compound 26 was dosed at 1.5 mg/kg (QD), 2 mg/kg (TID), 3 mg/kg (BID), 6 mg/kg (QD) and 10 mg/kg (BID) for 21 days. Compound 141 was dosed at 0.75 mg/kg (BID), 1 mg/kg (TID), 1.5 mg/kg (BID), 3 mg/kg (QD) and 5 mg/kg (BID) for 21 days. Dabrafenib was dosed at 100 mg/kg for 21 days. This study was non-GLP.
The plasma samples were collected at predetermined time points for PK analysis. For non-termination plasma collection: the blood samples were collected into the 1.5 mL Eppendorf tubes containing 3 μL of 0.5 M EDTA-K2. And then the anticoagulant blood samples were centrifuged at 2,500 g at 4° C. for 15 minutes. For termination plasma collection: the mice was euthanized at predetermined time points post the treatment, the blood samples were collected into the 1.5 mL Eppendorf tubes containing 15 μL of 0.5 M EDTA-K2. And then the anticoagulant blood samples were centrifuged at 2,500 g at 4° C. for 15 minutes. The plasma samples were separated into 2 aliquots. The 1st was used for PK analysis, and the 2nd was served as backup.
The tumor samples were collected at predetermined time points for PK and WB analysis. The tumor was dissected out and split into 3 parts. The 1st part was used for PK analysis, the 2nd part was used for WB analysis and the last one was used as backup for the study. The samples were transferred into pre-labeled tubes and quickly froze in liquid nitrogen within 2 minutes after dissection. The samples were stored at −80° C. before analysis.
The brain samples were collected at predetermined time points for PK and potential WB analysis. The brain was dissected out and split into 3 parts (left brain, right brain upper and right brain lower), the left brain was used for PK, the right brain upper was used for WB and the last one was used as the backup for the study. The samples were transferred into pre-labeled tubes and quickly froze in liquid nitrogen within 2 minutes after dissection. The samples were stored at −80° C. before analysis.
The harvested plasma and tumor samples were processed for pharmacokinetics analysis by LC-MS/MS with a concentration range of 1.00-1,000 ng/mL for dabrafenib in plasma and 0.0500-50 ng/mL in tumor and brain homogenate, 5.00-10,000 ng/mL for Compound 141 in plasma and 0.200~200 ng/ml in tumor and brain homogenate. 20.0~20,000 ng/mL for Compound 26 in plasma and 0.5~500 ng/mL for Compound 26 tumor and brain homogenate.
Dabrafenib, Compound 26 and Compound 141 in female BALB/c nude mice plasma (K2-EDTA), tumor and brain homogenate were analyzed by LC-MS/MS (Triple Quad 6500+ Low Mass). Verapamil (5 ng/mL) in acetonitrile: methanol (V: V=95:5) was used as the internal standard for Dabrafenib, Compound 26 and Compound 141 in plasma. Verapamil (0.5 ng/mL) in acetonitrile: methanol (V: V=95:5) was used as the internal standard for Dabrafenib, Compound 26 and Compound 141 in tumor and brain homogenate.
An aliquot of 10 μL unknown sample, calibration standard, quality control, dilute quality control, single blank and double blank samples were added to the 96-well plate. Each sample for Dabrafenib, Compound 26 and Compound 141 in plasma (except the double blank) was quenched with 200 μL IS respectively (double blank sample was quenched with 200 μL ACN: MeOH (V: V=95:5)); each sample for Dabrafenib, Compound 26 and Compound 141 in tumor and brain(except the double blank) was quenched with 100 μL IS respectively (double blank sample was quenched with 100 μL ACN: MeOH (V: V=95:5)); and then the mixture was vortex-mixed for 5 min at 800 rpm and centrifuged for 15 min at 3220 g (4000 rpm), 4° C. […]

[1] = plasma, 0.75 mg/kg p.o. BID x 21 days, mean ± SEM
[2] = plasma, 0.75 mg/kg p.o. BID x 21 days, mean ± SEM, read-out: Concentration in Plasma
[3] = plasma, 1 mg/kg p.o. TID x 21 days, mean ± SEM
[4] = plasma, 1 mg/kg p.o. TID x 21 days, mean ± SEM, read-out: Concentration in Plasma
[5] = plasma, 1.5 mg/kg p.o. BID x 21 days, mean ± SEM
[6] = plasma, 1.5 mg/kg p.o. BID x 21 days, mean ± SEM, read-out: Concentration in Plasma
[7] = plasma, 3 mg/kg p.o. QD x 21 days, mean ± SEM
[8] = plasma, 3 mg/kg p.o. QD x 21 days, mean ± SEM, read-out: Concentration in Plasma
[9] = plasma, 5 mg/kg p.o. BID x 21 days, mean ± SEM
[10] = plasma, 5 mg/kg p.o. BID x 21 days, mean ± SEM, read-out: Concentration in Plasma
[11] = tumor, 1 mg/kg p.o. TID x 21 days, mean ± SEM, read-out: Concentration in Tumor
[12] = tumor, 1.5 mg/kg p.o. BID x 21 days, mean ± SEM, read-out: Concentration in Tumor

SMILES: CCN(C)S(=O)(=O)Nc1ccc(F)c(Oc2ccc3ncn(C4CC5(CCN(C6CC7(C6)CN(c6cc8c(cc6F)c(N6CCC(=O)NC6=O)nn8C)C7)CC5)C4)c(=O)c3c2)c1C#N (stereo not drawn) [Compound 141, 6-[2-cyano-3-[[ethyl(methyl)sulfamoyl]amino]-6-fluoro-phenoxy]-3-[7-[2-[3-(2,4-dioxohexahydropyrimidin-1-yl)-5-fluoro-1-methyl-indazol-6-yl]-2-azaspiro[3.3]heptan-6-yl]-7-azaspiro[3.5]nonan-2-yl]-4-oxo-quinazoline]
- Concentration in Brain (0.75 mg/kg p.o. BID x 21 days): BQL
- Concentration in Brain (1 mg/kg p.o. TID x 21 days): BQL
- Concentration in Brain (1.5 mg/kg p.o. BID x 21 days): BQL
- Concentration in Brain (3 mg/kg p.o. QD x 21 days): BQL
- concentration at 4 h (brain, 0.75 mg/kg p.o. BID x 21 days, mean ± SEM, read-out: Concentration in Brain): 10.7 ± 2.04 ng/g
- concentration at 4 h (brain, 1 mg/kg p.o. TID x 21 days, mean ± SEM, read-out: Concentration in Brain): 12.4 ± 2.79 ng/g
- concentration at 4 h (brain, 1.5 mg/kg p.o. BID x 21 days, mean ± SEM, read-out: Concentration in Brain): 10.1 ± 1.79 ng/g
- concentration at 4 h (brain, 3 mg/kg p.o. QD x 21 days, mean ± SEM, read-out: Concentration in Brain): 22.9 ± 2.7 ng/g
- concentration at 4 h (brain, 5 mg/kg p.o. BID x 21 days, mean ± SEM, read-out: Concentration in Brain): 51.4 ± 21.7 ng/g
- concentration at 24 h (brain, 5 mg/kg p.o. BID x 21 days, read-out: Concentration in Brain): 2.25 ng/g
- concentration at 0.25 h [1]: 369 ± 64.7 ng/mL
- concentration at 0.5 h [1]: 732 ± 139 ng/mL
- concentration at 1 h [1]: 1140 ± 226 ng/mL
- concentration at 2 h [1]: 1280 ± 277 ng/mL
- concentration at 4 h [2]: 663 ± 79 ng/mL
- concentration at 8 h [1]: 432 ± 45.3 ng/mL
- concentration at 10 h [1]: 343 ± 34.9 ng/mL
- concentration at 24 h [2]: 10.8 ± 2.44 ng/mL
- concentration at 0.25 h [3]: 950 ± 130 ng/mL
- concentration at 0.5 h [3]: 1750 ± 165 ng/mL
- concentration at 1 h [3]: 1930 ± 416 ng/mL
- concentration at 2 h [3]: 1760 ± 262 ng/mL
- concentration at 4 h [4]: 850 ± 185 ng/mL
- concentration at 8 h [3]: 780 ± 53.4 ng/mL
- concentration at 10 h [3]: 676 ± 42.5 ng/mL
- concentration at 24 h [4]: 33.7 ± 4.48 ng/mL
- concentration at 0.25 h [5]: 702 ± 91.7 ng/mL
- concentration at 0.5 h [5]: 1360 ± 270 ng/mL
- concentration at 1 h [5]: 1940 ± 211 ng/mL
- concentration at 2 h [5]: 2120 ± 241 ng/mL
- concentration at 4 h [6]: 950 ± 365 ng/mL
- concentration at 8 h [5]: 523 ± 19.7 ng/mL
- concentration at 10 h [5]: 328 ± 12.4 ng/mL
- concentration at 24 h [6]: 11.2 ± 2.61 ng/mL
- concentration at 0.25 h [7]: 1580 ± 247 ng/mL
- concentration at 0.5 h [7]: 2850 ± 361 ng/mL
- concentration at 1 h [7]: 5130 ± 799 ng/mL
- concentration at 2 h [7]: 5290 ± 555 ng/mL
- concentration at 4 h [8]: 2430 ± 222 ng/mL
- concentration at 8 h [7]: 869 ± 101 ng/mL
- concentration at 10 h [7]: 617 ± 41.7 ng/mL
- concentration at 24 h [8]: 12.2 ± 1.4 ng/mL
- concentration at 0.25 h [9]: 2930 ± 226 ng/mL
- concentration at 0.5 h [9]: 6300 ± 457 ng/mL
- concentration at 1 h [9]: 6340 ± 1160 ng/mL
- concentration at 2 h [9]: 6130 ± 1280 ng/mL
- concentration at 4 h [10]: 3730 ± 1140 ng/mL
- concentration at 8 h [9]: 3260 ± 243 ng/mL
- concentration at 10 h [9]: 2370 ± 37.1 ng/mL
- concentration at 24 h [10]: 38.9 ± 5.18 ng/mL
- concentration at 4 h (tumor, 0.75 mg/kg p.o. BID x 21 days, mean ± SEM, read-out: Concentration in Tumor): 160 ± 24.9 ng/g
- concentration at 24 h (tumor, 0.75 mg/kg p.o. BID x 21 days, read-out: Concentration in Tumor): 33 ng/g
- concentration at 4 h [11]: 390 ± 107 ng/g
- concentration at 24 h [11]: 14.3 ± 4.44 ng/g
- concentration at 4 h [12]: 317 ± 61.6 ng/g
- concentration at 24 h [12]: 6.7 ng/g
- concentration at 4 h (tumor, 3 mg/kg p.o. QD x 21 days, mean ± SEM, read-out: Concentration in Tumor): 909 ± 165 ng/g
- concentration at 24 h (tumor, 3 mg/kg p.o. QD x 21 days, read-out: Concentration in Tumor): 3.01 ng/g
- concentration at 4 h (tumor, 5 mg/kg p.o. BID x 21 days, mean ± SEM, read-out: Concentration in Tumor): 1300 ± 471 ng/g
- concentration at 24 h (tumor, 5 mg/kg p.o. BID x 21 days, read-out: Concentration in Tumor): 79.3 ng/g
